From PubChem BioAssay (NCI)
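96-well plates; 48 h exposure; 5 concentrations. Endpoints by linear interpolation between flanking doses. Not reached: highest tested concentration assigned. At the GI50, growth is halved. At the TGI there is no net growth.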

How the values were obtained:
Test in all cases: NCI tumour cell line growth inhibition, 48 h
CCRF-CEM leukemia = tested on: CCRF-CEM leukemia
SK-MEL-28 melanoma = tested on: SK-MEL-28 melanoma
HL-60(TB) leukemia = tested on: HL-60(TB) leukemia
SF-268 CNS = tested on: SF-268 CNS
SK-OV-3 ovarian = tested on: SK-OV-3 ovarian
U251 CNS = tested on: U251 CNS
HCT-15 colon = tested on: HCT-15 colon
MDA-MB-231 breast = tested on: MDA-MB-231 breast
HS 578T breast = tested on: HS 578T breast
BT-549 breast = tested on: BT-549 breast

Cc1cccc(NC(=O)c2c(N)[n+]([O-])c3ccccc3[n+]2[O-])c1
TGI (CCRF-CEM leukemia): > 100 µM | TGI (SK-MEL-28 melanoma): 20.7 µM | TGI (HL-60(TB) leukemia): 56.7 µM | TGI (SF-268 CNS): 22.8 µM | TGI (SK-OV-3 ovarian): 63 µM | TGI (U251 CNS): 3.65 µM

Cc1cc(NS(=O)(=O)c2ccc(NC(=O)c3ccc(Cl)c4c(Nc5ccc(S(=O)(=O)Nc6cc(C)on6)cc5)c5ccccc5nc34)cc2)no1
TGI (CCRF-CEM leukemia): 51.8 µM | TGI (HL-60(TB) leukemia): 49.5 µM | TGI (SF-268 CNS): 42.3 µM | TGI (HCT-15 colon): 43 µM | TGI (SK-OV-3 ovarian): 42.2 µM | TGI (U251 CNS): 32.8 µM

COC(=O)CNC(=O)C(=O)c1c(O)c(O)c(C(C)C)c2cc(C)c(-c3c(C)cc4c(C(C)C)c(O)c(O)c(C(=O)C(=O)NCC(=O)OC)c4c3O)c(O)c12
GI50 (CCRF-CEM leukemia): 2.14 µM | TGI (CCRF-CEM leukemia): > 50 µM | GI50 (SK-MEL-28 melanoma): 2 µM | TGI (SK-MEL-28 melanoma): 8.61 µM | GI50 (SF-268 CNS): 1.88 µM | TGI (SF-268 CNS): 8.75 µM | GI50 (MDA-MB-231 breast): 1.99 µM | TGI (MDA-MB-231 breast): 9.64 µM | GI50 (HCT-15 colon): 1.49 µM | TGI (HCT-15 colon): 5.63 µM | GI50 (HS 578T breast): 1.83 µM | TGI (HS 578T breast): 8.58 µM | GI50 (BT-549 breast): 2.65 µM | TGI (BT-549 breast): 11.8 µM | GI50 (SK-OV-3 ovarian): 1.79 µM | TGI (SK-OV-3 ovarian): 6.89 µM | GI50 (U251 CNS): 1.53 µM | TGI (U251 CNS): 5.85 µM

COc1ccc(-c2cc(=O)c3c(O)c(O)c(OC)cc3o2)cc1O
TGI (CCRF-CEM leukemia): > 100 µM | TGI (SK-MEL-28 melanoma): > 100 µM | TGI (HL-60(TB) leukemia): > 100 µM | TGI (SF-268 CNS): > 100 µM | TGI (HCT-15 colon): > 100 µM | TGI (SK-OV-3 ovarian): > 100 µM | TGI (U251 CNS): > 100 µM

COc1ccc2c(=O)c(-c3cc(OC)c(OC)cc3OC)coc2c1
TGI (CCRF-CEM leukemia): > 100 µM | TGI (SK-MEL-28 melanoma): > 100 µM | TGI (HL-60(TB) leukemia): 2.92 µM | TGI (SF-268 CNS): > 100 µM | TGI (MDA-MB-231 breast): > 100 µM | TGI (HCT-15 colon): > 100 µM | TGI (BT-549 breast): > 100 µM | TGI (SK-OV-3 ovarian): > 44.1 µM | TGI (U251 CNS): > 38.6 µM

OCc1c(-c2cccs2)oc(-c2cccs2)c1CO
GI50 (CCRF-CEM leukemia): 48.7 µM | TGI (CCRF-CEM leukemia): > 100 µM | GI50 (SK-MEL-28 melanoma): > 100 µM | TGI (SK-MEL-28 melanoma): > 100 µM | GI50 (HL-60(TB) leukemia): 21.1 µM | TGI (HL-60(TB) leukemia): 70 µM | GI50 (SF-268 CNS): 35 µM | TGI (SF-268 CNS): > 100 µM | GI50 (MDA-MB-231 breast): 47.3 µM | TGI (MDA-MB-231 breast): 94 µM | GI50 (HCT-15 colon): 40.1 µM | TGI (HCT-15 colon): > 100 µM | GI50 (HS 578T breast): 44.2 µM | TGI (HS 578T breast): > 100 µM | GI50 (BT-549 breast): 56 µM | TGI (BT-549 breast): > 100 µM | GI50 (U251 CNS): 71.9 µM | TGI (U251 CNS): > 100 µM

CCOC(=O)c1ccc(N=Cc2ccc(N(CCC#N)S(=O)(=O)c3ccccc3)cc2C)cc1
TGI (CCRF-CEM leukemia): > 100 µM | TGI (SK-MEL-28 melanoma): > 100 µM | TGI (HL-60(TB) leukemia): > 100 µM | TGI (SF-268 CNS): > 100 µM | TGI (HCT-15 colon): > 100 µM | TGI (SK-OV-3 ovarian): > 100 µM | TGI (U251 CNS): > 100 µM

C=CCCC(O)c1cc(C)c(O)c(C)c1 (stereo not drawn)
TGI (CCRF-CEM leukemia): > 100 µM | TGI (SK-MEL-28 melanoma): > 100 µM | TGI (HL-60(TB) leukemia): > 100 µM | TGI (SF-268 CNS): > 100 µM | TGI (HCT-15 colon): > 100 µM | TGI (SK-OV-3 ovarian): > 100 µM | TGI (U251 CNS): > 100 µM

CN[C@@H](C)C(=O)N[C@H](C(=O)N1CCC[C@H]1c1nc(C(=O)c2ccc(F)cc2)cs1)C1CCCCC1
GI50 (CCRF-CEM leukemia): 20.5 µM | TGI (CCRF-CEM leukemia): > 84.6 µM | GI50 (SK-MEL-28 melanoma): 16.6 µM | TGI (SK-MEL-28 melanoma): 32 µM | GI50 (HL-60(TB) leukemia): 3.69 µM | TGI (HL-60(TB) leukemia): 20 µM | GI50 (SF-268 CNS): 46.9 µM | TGI (SF-268 CNS): > 100 µM | GI50 (MDA-MB-231 breast): 0.324 µM | TGI (MDA-MB-231 breast): 20.6 µM | GI50 (HCT-15 colon): 27.7 µM | TGI (HCT-15 colon): > 95.9 µM | GI50 (HS 578T breast): 19 µM | TGI (HS 578T breast): 74.1 µM | GI50 (BT-549 breast): 11.7 µM | TGI (BT-549 breast): 26.7 µM | GI50 (U251 CNS): 15.6 µM | TGI (U251 CNS): 33.3 µM

CCCCC[C@@H]1CCCC2NC(CCCCCO[Si](c3ccccc3)(c3ccccc3)C(C)(C)C)CCC21 (stereo partly drawn)
TGI (CCRF-CEM leukemia): 26.7 µM | TGI (SK-MEL-28 melanoma): 32.2 µM | TGI (HL-60(TB) leukemia): 23 µM | TGI (SF-268 CNS): 38.2 µM | TGI (HCT-15 colon): 25.7 µM | TGI (SK-OV-3 ovarian): 36.8 µM | TGI (U251 CNS): 27.8 µM

O=C(NCCCN1CCN(CCCNC(=O)c2cccc3ccccc23)CC1)c1cccc2ccccc12
TGI (CCRF-CEM leukemia): > 100 µM | TGI (HL-60(TB) leukemia): > 100 µM | TGI (HCT-15 colon): > 100 µM | TGI (SK-OV-3 ovarian): 57.6 µM | TGI (U251 CNS): > 100 µM

COc1ccc(-c2nc(NC(=O)CS(=O)(=O)c3ccc(F)cc3)sc2C)cc1
GI50 (SK-MEL-28 melanoma): 20.1 µM | TGI (SK-MEL-28 melanoma): 62 µM | GI50 (HL-60(TB) leukemia): 16.5 µM | TGI (HL-60(TB) leukemia): 66 µM | GI50 (SF-268 CNS): 28.7 µM | TGI (SF-268 CNS): > 100 µM | GI50 (MDA-MB-231 breast): 23.2 µM | TGI (MDA-MB-231 breast): > 100 µM | GI50 (HCT-15 colon): 12.5 µM | TGI (HCT-15 colon): > 100 µM | GI50 (HS 578T breast): 14.8 µM | TGI (HS 578T breast): 63.3 µM | GI50 (BT-549 breast): 15.8 µM | TGI (BT-549 breast): 40.3 µM | GI50 (SK-OV-3 ovarian): 24.1 µM | TGI (SK-OV-3 ovarian): > 100 µM | GI50 (U251 CNS): 19.2 µM | TGI (U251 CNS): 51.3 µM

CC(C)(C)c1cc(C2c3cc4c(cc3OC(O)(CO)C2C(=O)O)OCO4)cc(C(C)(C)C)c1O (stereo not drawn) (tested in a mixture with another compound)
TGI (CCRF-CEM leukemia): 21.9 µM | TGI (SK-MEL-28 melanoma): 28.7 µM | TGI (HL-60(TB) leukemia): 38.2 µM | TGI (HCT-15 colon): 26 µM | TGI (SK-OV-3 ovarian): 45.8 µM | TGI (U251 CNS): 29.1 µM

CC(=O)/C=C1\CC(=O)N(C)c2ccccc2N1
TGI (CCRF-CEM leukemia): > 100 µM | TGI (SK-MEL-28 melanoma): > 100 µM | TGI (SF-268 CNS): > 100 µM | TGI (SK-OV-3 ovarian): > 100 µM | TGI (U251 CNS): > 100 µM

Cn1c(=O)nc2n(-c3ccc(Br)cc3)c3ccccc3nc-2c1=O
TGI (CCRF-CEM leukemia): 19.9 µM | TGI (SF-268 CNS): 31 µM | TGI (HCT-15 colon): 14.7 µM | TGI (SK-OV-3 ovarian): > 100 µM | TGI (U251 CNS): 19.9 µM

O=c1[nH]c2nc3ccccc3c(=O)n2nc1Cc1ccccc1
TGI (CCRF-CEM leukemia): > 100 µM | TGI (SK-MEL-28 melanoma): > 100 µM | TGI (SF-268 CNS): > 100 µM | TGI (HCT-15 colon): > 100 µM | TGI (SK-OV-3 ovarian): > 100 µM | TGI (U251 CNS): > 100 µM

O=C(c1ccccc1)c1nc2c(Cl)ccc(Cl)c2cc1C(Br)Br
TGI (CCRF-CEM leukemia): 1.33 µM | TGI (SK-MEL-28 melanoma): 0.637 µM | TGI (SF-268 CNS): 2.96 µM | TGI (HCT-15 colon): 2.88 µM | TGI (U251 CNS): 2.38 µM

CN(C)Cc1ccc(NC(=O)c2cncc(C#Cc3cnc(N)c4ncccc34)c2)cc1C(F)(F)F
GI50 (CCRF-CEM leukemia): 1.34 µM | TGI (CCRF-CEM leukemia): 3.57 µM | GI50 (SK-MEL-28 melanoma): 0.161 µM | TGI (SK-MEL-28 melanoma): 1.43 µM | GI50 (HL-60(TB) leukemia): 0.937 µM | TGI (HL-60(TB) leukemia): 2.51 µM | GI50 (SF-268 CNS): 1.66 µM | TGI (SF-268 CNS): 3.2 µM | GI50 (MDA-MB-231 breast): 1.07 µM | TGI (MDA-MB-231 breast): 2.36 µM | GI50 (HCT-15 colon): 1.5 µM | TGI (HCT-15 colon): 3.1 µM | GI50 (HS 578T breast): 1.4 µM | TGI (HS 578T breast): 3.12 µM | GI50 (BT-549 breast): 2.21 µM | TGI (BT-549 breast): 4.36 µM | GI50 (U251 CNS): 1.63 µM | TGI (U251 CNS): 3.13 µM

CN(C)CCNC(=O)c1ccc2c(c1)oc1cc3ccccc3c(=O)n12
GI50 (HL-60(TB) leukemia): 23.8 µM | TGI (HL-60(TB) leukemia): 87.9 µM | GI50 (SF-268 CNS): 15.4 µM | TGI (SF-268 CNS): 31.7 µM | GI50 (MDA-MB-231 breast): 13 µM | TGI (MDA-MB-231 breast): 27.9 µM | GI50 (HCT-15 colon): 12.8 µM | TGI (HCT-15 colon): 31.4 µM | GI50 (BT-549 breast): 25.9 µM | TGI (BT-549 breast): 45.8 µM | GI50 (SK-OV-3 ovarian): 13.8 µM | TGI (SK-OV-3 ovarian): 30.9 µM | GI50 (U251 CNS): 15.8 µM | TGI (U251 CNS): 30.6 µM

CC(C)(C)OC(=O)N(CCCCN(CCCn1c2c(c3ccccc3c1=O)C(=O)c1ccccc1-2)C(=O)OC(C)(C)C)CCCn1c2c(c3ccccc3c1=O)C(=O)c1ccccc1-2
GI50 (SK-MEL-28 melanoma): > 100 µM | TGI (SK-MEL-28 melanoma): > 100 µM | GI50 (HL-60(TB) leukemia): > 100 µM | TGI (HL-60(TB) leukemia): > 100 µM | GI50 (SF-268 CNS): 58.5 µM | TGI (SF-268 CNS): > 100 µM | GI50 (MDA-MB-231 breast): 13.9 µM | TGI (MDA-MB-231 breast): 47.2 µM | GI50 (HCT-15 colon): 23.4 µM | TGI (HCT-15 colon): > 100 µM | GI50 (HS 578T breast): 13.1 µM | TGI (HS 578T breast): 59.6 µM | GI50 (BT-549 breast): > 100 µM | TGI (BT-549 breast): > 100 µM | GI50 (SK-OV-3 ovarian): > 100 µM | TGI (SK-OV-3 ovarian): > 100 µM | GI50 (U251 CNS): 27.2 µM | TGI (U251 CNS): > 100 µM
